Measured values taken from patent publication US6943016B1, “Human adult astrocytes, their preparation and uses thereof” (Aventis Pharma S.A., priority 1999, dated 2005).

Test system: human adult astrocytes
Assay: TH activity in transduced human adult astrocytes (enzymatic assay of Reinhard et al.)
Type: cell-based
Conditions: AdPGKtet hTH-1-infected astrocytes, doxycycline 10 ng/ml
Experimental: The medium was renewed every second day.
Three, 7 and 14 days after infection, cells were harvested and processed to measure TH activity and evaluate L-Dopa production. TH activity of cell pellets was assayed as previously described (Reinhard et al. 1986). The production of L-Dopa was assessed after growing human astrocytes for 24 h in DMEM/F12 without FCS. Conditioned media was collected, and 0.5 ml aliquots were mixed with an alumina suspension (40 mg/ml) in 0.05 M Tris-HCl, pH 8.6. Each mixture was then continuously stirred for 10 min, washed with the Tris-HCl buffer, and the alumina finally collected by centrifugation (800 g, 5 min. 4° C.). Catechols adsorbed onto the alumina gel were eluted with 0.6 N perchloric acid (0.1 ml per sample), and the eluate was neutralized with 2 M potassium phosphate pH 7.4 (20 μl per sample). After centrifugation (30 000 g, 15 min, 4° C.), 10 μl aliquots of the cleared supernatant were injected into a high performance liquid chromatography column (Ultrasphere IP, 25 cm, 0.46 cm outer diameter, 5 μm) for the electrochemical quantification of L-Dopa, as described in detail elsewhere (Adrien et al., 1989).

## C[C@H]1c2cccc(O)c2C(=O)C2=C(O)[C@]3(O)C(=O)C(C(N)=O)=C(O)[C@@H](N(C)C)[C@@H]3[C@@H](O)[C@@H]21 [doxycycline]
14 days post-infection
  decrease of TH activity in the presence of doxycycline: at least 10 fold
Day 14
  TH activity in doxycycline-treated cells: 3,590 pmol/mg prot/h
